≈ marks a conversion by molar mass, not a printed value.
What was measured:
Assay in all cases: MIC, broth microdilution (NCCLS)
[1] = system: Streptococcus pneumoniae Stpn_297-749; assay type: cell-based; parameters: MIC, strain ID N: unit not given here; conditions: for MIC, strain ID N: broth microdilution
In short: (§1)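 Broth microdilution per NCCLS in cation-adjusted Mueller-Hinton broth, with 2-5% lysed horse blood added for S. pneumoniae. Inoculum 3×10^5–7×10^5 CFU/ml, 2-fold drug dilutions, 18-24 h at 35° C; S. pneumoniae under 5-10% CO2, others ambient air. MIC = lowest concentration preventing visible growth.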

[2] = system: Streptococcus pneumoniae Stpn_49619; assay type: cell-based; parameters: MIC, strain ID M: unit not given beside the values; conditions: for MIC, strain ID M: broth microdilution
In short: as §1

[3] = system: Haemophilus influenzae Hain_960820544-3; assay type: cell-based; conditions: in µg/mL (unit assumed); for MIC, strain ID J: broth microdilution
Experimental: (§2) Strains. The bacterial isolates listed in Table 8 were cultivated from −70° C. frozen stocks by two consecutive overnight passages (P1, P2) at 35° C. on 5% blood agar (Remel, Lenexa, Kans.). Chocolate agar (Remel) is used for Haemophilus influenzae. H. influenzae and Streptococcus pneumoniae are incubated in 5-10% CO2
(§3) Drug Stock Preparation. To determine the amount of solvent to be used to give the desired final concentration, the formula “weight obtained in mg/final concentration in mg/ml” will be used. It will give the amount of solvent in ml needed to be added to give the desired concentration. For example, if 2.5 mg/ml is the desired concentration and the weight of compound is 13.7 mg, then the amount of solvent to be added is […]. Methanol is used as the solvent to dissolve the test compounds. Further dilution of stock is done in sterile, deionized water. Drug stocks are kept frozen at −70° C., protected from light.
(§4) Susceptibility Testing. MICs are determined by the broth microdilution method in accordance with the NCCLS guidelines. In brief, organism suspensions are adjusted to a 0.5 McFarland standard to yield a final inoculum between 3×10^5 and 7×10^5 CFU/ml. Drug dilutions and inocula are made in sterile, cation adjusted Mueller-Hinton Broth (CAMHB) (Remel) for all but S. pneumoniae [CAMHB with 2-5% lysed horse blood (Remel)] and H. influenzae [Haemophilus Test Medium (Remel)]. An inoculum volume of 100 μl is added to wells containing 100 μl of broth with 2-fold serial dilutions of drug. All inoculated microdilution trays are incubated in ambient air at 35° C. for 18-24 hours, except for S. pneumoniae, and H. influenzae (both at 5-10% CO2).
(§5) Following appropriate incubation, the MIC is determined and the MIC is defined as the lowest concentration of the drug that prevented visible growth. […] Antibacterial activity of representative compounds of the invention were compared against telitromycin.

[4] = system: Haemophilus influenzae Hain_960730503-3; assay type: cell-based; conditions: in µg/mL (unit assumed); for MIC, strain ID I: broth microdilution
Experimental: as §2, §3, §4, §5

[5] = system: Haemophilus influenzae Hain_2762; assay type: cell-based; conditions: in µg/mL (unit assumed); for MIC, strain ID L: broth microdilution
Experimental: as §2, §3, §4, §5

[6] = system: Haemophilus influenzae Hain_953460299-3; assay type: cell-based; conditions: in µg/mL (unit assumed); for MIC, strain ID K: broth microdilution
Experimental: as §2, §3, §4, §5

[7] = system: Enterococcus faecalis Enfa_bc 11148-2; assay type: cell-based; conditions: in µg/mL (unit assumed); for MIC, strain ID F: broth microdilution
Experimental: as §2, §3, §4, §5

[8] = system: Staphylococcus aureus Stau_33591; assay type: cell-based; conditions: unit assumed; for MIC, strain ID B: broth microdilution
Experimental: as §2, §3, §4, §5

[9] = system: Streptococcus pneumoniae Stpn_280-962; assay type: cell-based; parameters: MIC, strain ID O: unit not given beside the values; conditions: for MIC, strain ID O: broth microdilution
In short: as §1

[10] = system: Staphylococcus aureus Stau_29213; assay type: cell-based; conditions: in µg/mL (unit assumed); for MIC, strain ID A: broth microdilution
In short: as §1

[11] = system: Staphylococcus epidermidis Step_14990; assay type: cell-based; conditions: in µg/mL (unit assumed); for MIC, strain ID C: broth microdilution
In short: as §1

[12] = system: Enterococcus faecalis Enfa_29212; assay type: cell-based; conditions: for MIC, strain ID E: broth microdilution
In short: as §1

[13] = system: Staphylococcus epidermidis Step_f50654; assay type: cell-based; conditions: in µg/mL (unit assumed); for MIC, strain ID D: broth microdilution
In short: as §1

[14] = system: Streptococcus pneumoniae Stpn_Erm S 4297; assay type: cell-based; conditions: for MIC, strain ID Q: broth microdilution
In short: as §1

[15] = system: Haemophilus influenzae Hain_49247; assay type: cell-based; conditions: unit assumed; for MIC, strain ID H: broth microdilution
[16] = system: Streptococcus pyogenes Stpy_8668; assay type: cell-based; parameters: MIC, strain ID G: unit not given beside the values; conditions: for MIC, strain ID G: broth microdilution
In short: as §1

[17] = system: S. pneumoniae Stpn_Erm 6849; assay type: cell-based, Streptococcus pneumoniae; conditions: strain ID P; broth microdilution; in µg/mL (unit assumed)
In short: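 Lowest drug concentration giving no visible growth after 18-24 hours at 35° C. under 5-10% CO2 was taken as MIC. Twofold serial dilutions in CAMHB plus 2-5% lysed horse blood, final inoculum 3×10^5–7×10^5 CFU/ml, per NCCLS microdilution.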

[18] = system: Streptococcus pneumoniae Stpn_Mef 5654; assay type: cell-based; conditions: Table 10, Strain ID P (Table 8): Streptococcus pneumoniae Stpn_Mef 5654; in µg/mL (unit assumed)
In short: as §1

[19] = system: Streptococcus pneumoniae Stpn_Mef S 3427; assay type: cell-based; conditions: Table 10, Strain ID Q (Table 8): Streptococcus pneumoniae Stpn_Mef S 3427; in µg/mL (unit assumed)
In short: as §1

| Compound | MIC, strain ID N [1] | MIC, strain ID M [2] | MIC, strain ID J [3] | MIC, strain ID I [4] | MIC, strain ID L [5] | MIC, strain ID K [6] | MIC, strain ID F [7] | MIC, strain ID B [8] [µg/mL] | MIC, strain ID O [9] | MIC, strain ID A [10] | MIC, strain ID C [11] | MIC, strain ID E ([12]; in µg/mL (unit assumed)) | MIC, strain ID D [13] | MIC, strain ID H [15] [µg/mL] | MIC, strain ID G [16] | MIC, strain ID P [17] | MIC, strain ID E [12] | MIC, strain ID Q ([14]; in µg/mL (unit assumed)) | other results |
| --- | --- | --- | --- | --- | --- | --- | --- | --- | --- | --- | --- | --- | --- | --- | --- | --- | --- | --- | --- |
| C=C[C@]12OC(=O)N(CCCCn3cc(-c4ccc(Cl)nc4)nc3C)[C@@H]1[C@@H](C)C(=O)[C@H](C)C[C@](C)(OC)[C@H](OC1O[C@H](C)C[C@H](N(C)C)[C@H]1O)[C@@H](C)C(=O)[C@@H](C)C(=O)O[C@@H]2CC (stereo partly shown) [XXIX] | =0.05 | =0.05 | 6.25 | 6.25 | 1.56 | 12.5 | 3.13 | > 50 | =0.05 | 0.2 | 0.1 | 0.1 | 0.2 | 6.25 (≈ 7.16 µM) | =0.05 | 0.78 | – | – | MIC, strain ID Q [14]: =0.05 |
| CC[C@H]1OC(=O)[C@H](C)C(=O)[C@H](C)[C@@H](OC2O[C@H](C)C[C@H](N(C)C)[C@H]2O)[C@@](C)(OC)C[C@@H](C)C(=O)[C@H](C)[C@H]2N(CCCCn3cnc(-c4ccc(Cl)nc4)c3)C(=O)O[C@]12CC (stereo partly shown) [XXI] | – | – | – | – | – | – | – | – | – | – | – | – | – | – | – | – | – | – | MIC [18]: 0.78; MIC ([1]; Table 10, Strain ID N (Table 8): Streptococcus pneumoniae Stpn_297-749): =0.05; MIC ([2]; Table 10, Strain ID M (Table 8): Streptococcus pneumoniae Stpn_49619): =0.05; MIC ([3]; Table 10, Strain ID J (Table 8): Haemophilus influenzae Hain_960820544-3): 6.25; MIC ([4]; Table 10, Strain ID I (Table 8): Haemophilus influenzae Hain_960730503-3): 6.25; MIC ([5]; Table 10, Strain ID L (Table 8): Haemophilus influenzae Hain_2762): 0.78; MIC ([6]; Table 10, Strain ID K (Table 8): Haemophilus influenzae Hain_953460299-3): 6.25; MIC ([7]; Table 10, Strain ID F (Table 8): Enterococcus faecalis Enfa_bc 11148-2): 1.56; MIC ([8]; Table 10, Strain ID B (Table 8): Staphylococcus aureus Stau_33591): > 50 µg/mL; MIC ([9]; Table 10, Strain ID O (Table 8): Streptococcus pneumoniae Stpn_280-962): =0.05; MIC ([10]; Table 10, Strain ID A (Table 8): Staphylococcus aureus Stau_29213): 0.1; MIC ([11]; Table 10, Strain ID C (Table 8): Staphylococcus epidermidis Step_14990): 0.1; MIC ([12]; Table 10, Strain ID E (Table 8): Enterococcus faecalis Enfa_29212): =0.05; MIC ([13]; Table 10, Strain ID D (Table 8): Staphylococcus epidermidis Step_f50654): 0.1; MIC ([14]; Table 10, Strain ID R (Table 8): Streptococcus pneumoniae Stpn_Erm S 4297, unit assumed): 0.1 µg/mL (≈ 0.116 µM); MIC [19]: 0.2; MIC ([15]; Table 10, Strain ID H (Table 8): Haemophilus influenzae Hain_49247): 3.13 µg/mL (≈ 3.64 µM); MIC ([16]; Table 10, Strain ID G (Table 8): Streptococcus pyogenes Stpy_8668): =0.05 |
| CC[C@H]1OC(=O)[C@H](C)C(=O)[C@H](C)[C@@H](OC2O[C@H](C)C[C@H](N(C)C)[C@H]2O)[C@@](C)(OC)C[C@@H](C)C(=O)[C@H](C)[C@@H]2[C@@H]1OC(=O)N2CCCCn1cnc(-c2ccc(Cl)nc2)c1 (stereo partly shown) [XXVIII] | =0.05 | =0.05 | 6.25 | 6.25 | 1.56 | 12.5 | 0.4 | > 50 | =0.05 | 0.2 | 0.1 | – | 0.2 | 6.25 (≈ 7.51 µM) | =0.05 | 0.78 | =0.05 | 0.1 | – |
| C#C[C@]12OC(=O)N(CCCCn3cnc(-c4ccc(OC)nc4)c3)[C@@H]1[C@@H](C)C(=O)[C@H](C)C[C@](C)(OC)[C@H](OC1O[C@H](C)C[C@H](N(C)C)[C@H]1O)[C@@H](C)C(=O)[C@@H](C)C(=O)O[C@@H]2CC (stereo partly shown) [XXXII] | =0.05 | =0.05 | 12.5 | 12.5 | 1.56 | 12.5 | 1.56 | > 50 | =0.05 | 0.2 | 0.1 | 0.1 | 0.2 | 6.25 (≈ 7.34 µM) | =0.05 | 0.78 | – | 0.2 | – |
| C#C[C@]12OC(=O)N(CCCCn3cnc(-c4ccc(Cl)nc4)c3)[C@@H]1[C@@H](C)C(=O)[C@H](C)C[C@](C)(OC)[C@H](OC1O[C@H](C)C[C@H](N(C)C)[C@H]1O)[C@@H](C)C(=O)[C@@H](C)C(=O)O[C@@H]2CC (stereo partly shown) [XXXIV] | =0.05 | =0.05 | 6.25 | 6.25 | 0.78 | 6.25 | 0.4 | > 50 | =0.05 | 0.1 | 0.1 | – | 0.1 | 3.13 (≈ 3.65 µM) | =0.05 | 0.4 | =0.05 | 0.1 | – |
| C=C[C@]12OC(=O)N(CCCCn3cnc(-c4cnc(Cl)c(C)c4)c3)[C@@H]1[C@@H](C)C(=O)[C@H](C)C[C@](C)(OC)[C@H](OC1O[C@H](C)C[C@H](N(C)C)[C@H]1O)[C@@H](C)C(=O)[C@@H](C)C(=O)O[C@@H]2CC (stereo partly shown) [XXXVIII] | =0.05 | =0.05 | 12.5 | 6.25 | 1.56 | 12.5 | 3.13 | > 50 | =0.05 | 0.1 | 0.1 | 0.1 | 0.4 | 3.13 (≈ 3.59 µM) | =0.05 | 0.2 | – | 0.2 | – |

— patent US7332476B2, “Pyridyl substituted ketolide antibiotics” (Novartis AG, priority 2003, dated 2008)
